Measurements reported in patent US8039009B2, “Modified release formulations of memantine oral dosage forms” (priority 2004, dated 2011).

Assay: Powder testing of final blends for compression (flow and compression properties)
Assay type: physicochemical
Description: The powder properties of the final blends for compression were evaluated. During compression, excellent powder flow through the hopper was visually observed. The following Table presents the results of powder testing.

flow and compression properties (in words): poor flow properties | Flowability Index (powder): 23.5
Structure (SMILES): CC12CC3CC(C)(C1)CC(N)(C3)C2 [memantine, 1-amino-3,5-dimethyladamantane]
